Reference: paper PMC7352952, “Peptides Derived from (RRWQWRMKKLG)2-K-Ahx Induce Selective Cellular Death in Breast Cancer Cell Lines through Apoptotic Pathway” (International Journal of Molecular Sciences, 2020)
pIC50: −log10 of the molar value. Converted amounts (≈) assume the structure as drawn. Bridge positions count the residues as written; N and C are the ends. Square brackets hold non-standard residues; d marks the D form. Peptide text beside a SMILES is read from it. I, II: the chains in the order shown. Ahx = NCCCCCC(=O)O

Experiments:
MCF-7 cell line = test: MTT viability test, MCF-7 cells; type: cell-based, human; conditions: for cytotoxic effect against MCF-7 compared with ^26[M] (in words) / pIC50: 24 h; for IC50, cytotoxic effect, MCF-7: 24 h at 37 °C, three independent experiments with n = 4 each; for pIC50: human, pH 7.4
Procedure: (§1) For all cell lines, the medium used was Dulbecco’s Modified Eagle’s Medium (DMEM)/Nutrient Mixture F-12 Ham. For the HTB-132, MCF-7, and MCF-12A lines, the medium was supplemented with 10% fetal bovine serum (SFB), and 1.5 g/L NaHCO3 and NaOH were added up to pH 7.4, amphotericin (200 μg/mL), and 1% penicillin and streptomycin. For the primary culture cells of bovine mammary epithelium and fibroblasts, in addition to the above, hydrocortisone (250 μg/mL) was added. All media were filtered through a 0.22 μm membrane.
(§2) Briefly, the cells were seeded with a complete medium in 96-well plates at a rate of 10,000 cells and 100 µL per well, and adhesion to the plates was allowed for 24 h. Subsequently, the complete medium was removed and an incomplete medium was added for synchronization for another 24 h. The cells were then incubated at 37 °C for 2, 24, or 48 h with 100 μL of peptide at the concentrations to be evaluated (200, 100, 50, 25, 12.5, 6.25 and 3.1 μg/mL). Next, the peptide was removed from the box, and 100 µL of incomplete medium with 10% 3-4,5-dimethylthiazol-2-yl-2,5-diphenyltetrazole (MTT) bromide was added and incubated for 4 h. The medium was replaced with 100 μL of isopropanol (IPA), and after 30 min of incubation at 37 °C, the absorbance was measured at 575 nm. As a negative control, an incomplete culture medium with 10% MTT was used, and as a positive control, cells without MTT treatment were used.

HTB-132 cell line = test: MTT viability test, HTB-132 cells; type: cell-based, human; conditions: for cytotoxic effect against HTB-132 compared with ^26[M] (in words) / IC50, cytotoxic effect, HTB-132: MTT; for cytotoxic effect against HTB-132 compared with ^26[M] (in words) / pIC50: 24 h; for IC50, cytotoxic effect, HTB-132: 24 h at 37 °C, mean of n = 3; for pIC50: human, pH 7.4
Procedure: as §1, §2

MCF-7 cells = test: Cell morphology and size by inverted microscope; type: cell-based, human; conditions: MCF-7, 90 min of treatment, 37 °C; from 100.27 μm before; average of 100 measurements; Figure 3: 100 µg/mL
Procedure: Cell morphology was monitored before and after treatment with ^26[L] or ^26[F] at different times, using an inverted microscope coupled to an AxioCam ICc1 camera (Figure 3). The untreated cells had normal morphologic characteristics as polygonal, flattened, and elongated cells with long and defined axons (data not shown). After 5 min of treatment with the peptide, most cells retained their morphology; however, some began to appear rounded and shrunken. After 90 min, the cells treated with the peptide (^26[L] or ^26[F]) took on a rounded shape, and shrinkage was observed, going from an average size of 100.27 μm to 39.38 µm. […] At 24 h of treatment, the appearance of small vacuoles was observed, presumably associated with late apoptosis events. Finally, it was observed that the effect of the peptide was sustained up to 48 h since at that time no recovery of cell morphology was observed.
Figure 3 Micrography of MCF-7 cells treated with peptide ^26[F] at 100 µg/mL. The cells were incubated in the absence (A) or the presence of the peptide at (B) 5 min, (C) 90 min, (D) 240 min, (E) 24 h, and (F) 48 h at 37 °C. The cell size was determined as an average of 100 measurements, using an AxioCam ICc1 camera.

MCF-12 cell line = type: cell-based, human
Procedure: as §1, §2

[1] = system: MDA-MB 231 breast cancer cells; conditions: cited from earlier work
Excerpt: (§3) Breast cancer is the most common cancer type diagnosed worldwide. There are 2.1 million cases annually, and 627,000 deaths of women due to this disease were reported in 2018 [5]. […] However, when this motif was modified or included in longer sequences, the cytotoxic effect against human cancer cell lines increased. In ...

[2] = system: MDA-MB 468 breast cancer cells; conditions: cited from earlier work
Excerpt: as §3

Compound	cytotoxic effect against MCF-7 compared with ^26[M] (in words) (MCF-7 cell line; MTT)	IC50, cytotoxic effect, MCF-7 (MCF-7 cell line; MTT) [µg/mL]	pIC50 (MCF-7 cell line)	cytotoxic effect against HTB-132 compared with ^26[M] (in words) (HTB-132 cell line)	IC50, cytotoxic effect, HTB-132 (HTB-132 cell line) [µg/mL]	pIC50 (HTB-132 cell line)	maximum cytotoxic effect, MCF-7 (MCF-7 cell line; MTT, peptide 200 µg/mL, regardless of treatment time (2, 24, 48 h)) [%]	average cell size after treatment (MCF-7 cells) [µm]	cytotoxic effect against MCF-12 compared with HTB-132 and MCF-7 (in words) (MCF-12 cell line)	IC50, non-tumorigenic cell line MCF-12 (MCF-12 cell line; 24 h) [µg/mL]	cytotoxic effect against MDA-MB-231 (in words) [1]	cytotoxic effect against MDA-MB-468 (in words) [2]
CC(C)C[C@H](NC(=O)[C@H](CCCCN)NC(=O)[C@H](CCCCN)NC(=O)[C@H](C)NC(=O)[C@H](CCCNC(=N)N)NC(=O)[C@H](Cc1c[nH]c2ccccc12)NC(=O)[C@H](CCC(N)=O)NC(=O)[C@H](Cc1c[nH]c2ccccc12)NC(=O)[C@H](CCCNC(=N)N)NC(=O)[C@@H](N)CCCNC(=N)N)C(=O)NCC(=O)NCCCC[C@H](NC(=O)CNC(=O)[C@H](CC(C)C)NC(=O)[C@H](CCCCN)NC(=O)[C@H](CCCCN)NC(=O)[C@H](C)NC(=O)[C@H](CCCNC(=N)N)NC(=O)[C@H](Cc1c[nH]c2ccccc12)NC(=O)[C@H](CCC(N)=O)NC(=O)[C@H](Cc1c[nH]c2ccccc12)NC(=O)[C@H](CCCNC(=N)N)NC(=O)[C@@H](N)CCCNC(=N)N)C(=O)NCCCCCC(N)=O [^26[A], (RRWQWRAKKLG)2-K-Ahx] (I: H-RRWQWRAKKLGK[Ahx]-NH2 / II: H-RRWQWRAKKLG; amide I:12-II:C)	greater cytotoxic effect against MCF-7 cells than the peptide	> 200	< 4.22	–	–	–	–	–	–	–	–	–
CC(C)C[C@H](NC(=O)[C@H](CCCCN)NC(=O)[C@H](CCCCN)NC(=O)[C@H](CC(=O)O)NC(=O)[C@H](CCCNC(=N)N)NC(=O)[C@H](Cc1c[nH]c2ccccc12)NC(=O)[C@H](CCC(N)=O)NC(=O)[C@H](Cc1c[nH]c2ccccc12)NC(=O)[C@H](CCCNC(=N)N)NC(=O)[C@@H](N)CCCNC(=N)N)C(=O)NCC(=O)NCCCC[C@H](NC(=O)CNC(=O)[C@H](CC(C)C)NC(=O)[C@H](CCCCN)NC(=O)[C@H](CCCCN)NC(=O)[C@H](CC(=O)O)NC(=O)[C@H](CCCNC(=N)N)NC(=O)[C@H](Cc1c[nH]c2ccccc12)NC(=O)[C@H](CCC(N)=O)NC(=O)[C@H](Cc1c[nH]c2ccccc12)NC(=O)[C@H](CCCNC(=N)N)NC(=O)[C@@H](N)CCCNC(=N)N)C(=O)NCCCCCC(N)=O [^26[D], (RRWQWRDKKLG)2-K-Ahx] (I: H-RRWQWRDKKLGK[Ahx]-NH2 / II: H-RRWQWRDKKLG; amide I:12-II:C)	–	–	–	lower cytotoxic effect against HTB-132 cells than the original dimeric peptide	> 200	< 4.22	–	–	–	–	–	–
CC(C)C[C@H](NC(=O)[C@H](CCCCN)NC(=O)[C@H](CCCCN)NC(=O)[C@H](CCCCN)NC(=O)[C@H](CCCNC(=N)N)NC(=O)[C@H](Cc1c[nH]c2ccccc12)NC(=O)[C@H](CCC(N)=O)NC(=O)[C@H](Cc1c[nH]c2ccccc12)NC(=O)[C@H](CCCNC(=N)N)NC(=O)[C@@H](N)CCCNC(=N)N)C(=O)NCC(=O)NCCCC[C@H](NC(=O)CNC(=O)[C@H](CC(C)C)NC(=O)[C@H](CCCCN)NC(=O)[C@H](CCCCN)NC(=O)[C@H](CCCCN)NC(=O)[C@H](CCCNC(=N)N)NC(=O)[C@H](Cc1c[nH]c2ccccc12)NC(=O)[C@H](CCC(N)=O)NC(=O)[C@H](Cc1c[nH]c2ccccc12)NC(=O)[C@H](CCCNC(=N)N)NC(=O)[C@@H](N)CCCNC(=N)N)C(=O)NCCCCCC(N)=O [^26[K], (RRWQWRKKKLG)2-K-Ahx] (I: H-RRWQWRKKKLGK[Ahx]-NH2 / II: H-RRWQWRKKKLG; amide I:12-II:C)	–	–	–	lower cytotoxic effect against HTB-132 cells than the original dimeric peptide	> 200	< 4.22	–	–	–	–	–	–
CC(C)C[C@H](NC(=O)[C@H](CCCCN)NC(=O)[C@H](CCCCN)NC(=O)[C@H](CC(C)C)NC(=O)[C@H](CCCNC(=N)N)NC(=O)[C@H](Cc1c[nH]c2ccccc12)NC(=O)[C@H](CCC(N)=O)NC(=O)[C@H](Cc1c[nH]c2ccccc12)NC(=O)[C@H](CCCNC(=N)N)NC(=O)[C@@H](N)CCCNC(=N)N)C(=O)NCC(=O)NCCCC[C@H](NC(=O)CNC(=O)[C@H](CC(C)C)NC(=O)[C@H](CCCCN)NC(=O)[C@H](CCCCN)NC(=O)[C@H](CC(C)C)NC(=O)[C@H](CCCNC(=N)N)NC(=O)[C@H](Cc1c[nH]c2ccccc12)NC(=O)[C@H](CCC(N)=O)NC(=O)[C@H](Cc1c[nH]c2ccccc12)NC(=O)[C@H](CCCNC(=N)N)NC(=O)[C@@H](N)CCCNC(=N)N)C(=O)NCCCCCC(N)=O [^26[L], (RRWQWRLKKLG)2-K-Ahx] (I: H-RRWQWRLKKLGK[Ahx]-NH2 / II: H-RRWQWRLKKLG; amide I:12-II:C)	greater cytotoxic effect against MCF-7 cells than the peptide	66 (≈ 20.1 µM)	4.70	greater cytotoxic effect against cancer cells than the original peptide	32 (≈ 9.77 µM)	5.00	~85	39.38	lower cytotoxic effect against MCF-12 cells than against breast cancer cell lines	> 100	–	–
RRWQWR [minimal motif peptide of LfcinB, reference compound]	–	–	–	–	–	–	–	–	–	–	low cytotoxic effect	low cytotoxic effect
